Test results from patent publication US20090227671A1, “Prevention and treatment of atherosclerosis with lithospermate B” (Industry-Academic Cooperation Foundation, priority 2005, published 2009).

Experiments:
[1] = system: vascular smooth muscle cells; experiment: VSMC proliferation induced by PDGF-BB (LDH and MTT assays); assay type: cell-based, Sprague-Dawley rats; settings: LAB 1, 5, 10, 20, 30 μM pretreatment, PDGF-BB 24 hrs; LDH and MTT assays
Text: Vascular smooth muscle cells ('VSMC' hereinafter) were separated from thoracic aorta of a Sprague-Dawley weighted about 100-150 g by using collagenase digestion method and then cultured them according to the method disclosed in previous studies [[…], et al. Role of p44/p42 MAP kinase in the age-dependent increase in vascular smooth muscle cell proliferation and neointimal formation. Arterioscler Thromb Vasc Biol. Feb. 1 2003; 23(2):204-210.; Hamaguchi A, Kim S, Izumi Y, et al. Contribution of extracellular signal-regulated kinase to angiotensin II-induced transforming growth factor-beta1 expression in vascular smooth muscle cells. Hypertension. July 1999; 34(1):126-131]. […] The VSMC was treated in a culture medium not containing serum for 24 hrs prior to treatment with PDGF-BB, and the reaction according to the presence or absence of PDGF-BB was analyzed after pretreating with LAB or other reagents. […] The cells were then washed twice with PBS, lysed by using 0.5% Triton-X100, and then the activity of lactate dehydronase (LDH) was measured by using CytoTox-ONETM assay kit (Promega, Madison, Wis., USA) with fluorescence at […]. […]

[2] = system: vascular smooth muscle cells; experiment: VSMC migration induced by PDGF-BB (modified Boyden chamber); assay type: cell-based, Sprague-Dawley rats; settings: pretreated with LAB, various concentrations; 16 hrs
Method: The migration of VSMC with 8 μm of pores was measured by using modified Boyden chamber method [Brown C, Pan X, Hassid A. Nitric oxide and C-type atrial natriuretic peptide stimulate primary aortic smooth muscle cell migration via a cGMP-dependent mechanism: relationship to microfilament dissociation and altered cell morphology. Circ Res. Apr. 2 1999; 84(6):655-667], which utilizes collagen-coated transwell tissue culture inserts consisting of polycarbonate membrane. 3.0×10^6 cells/mL of the above vascular smooth muscle cells were allowed to float in a culture medium without serum, treated with LAB with various concentrations and then cultured at 37° C. for 30 min. Then, the cells were treated with either 0.5 mL DMEM without serum or 0.5 mL DMEM without serum along with PDGF-BB 10 ng/mL and then placed in the lower part of a chamber. 100 μL of the folating materials of the above cells (final 3.0×10^5 cells/well) was added to the upper part of the chamber and cultured at 37° C. for 16 hrs. The cells were then fixed, dyed with hematoxylin, and filters were dried and developed.
It is known that […] plays an important role in proliferation of VSMC as well as development of atherosclerosis. To investigate whether LAB decreases the migration of VSMC induced by PDGF-BB, an experiment was performed as follows by using the aforementioned modified Boyden chamber method.

[3] = Acute toxicity due to oral administration in SD rats; assay type: in vivo; settings: SD, rat, in vivo, 1 g/kg; oral, single administration
Method: (§1) Acute toxicity test was performed using 6 week old SPF SD rats. The SD rats were divided two per each group and each rat was orally administered once with LAB in the amount of 1 g/kg/1 mL, which was suspended in 0.5% methylcellulose. After the above administration, the rats were subjected to examination with regard to survival, clinical symptoms, change in body weight, and the like and also hematological examination, biochemical blood test. Further, autopsies were performed to observe abnormalities in abdominal organs.

SD rats = experiment: as above; assay type: in vivo
Method: as §1

## O=C(/C=C/c1ccc(O)c2c1[C@H](C(=O)O[C@H](Cc1ccc(O)c(O)c1)C(=O)[O-])[C@@H](c1ccc(O)c(O)c1)O2)O[C@H](Cc1ccc(O)c(O)c1)C(=O)[O-].[Mg+2] [LAB, lithospermate B]
[1]
  VSMC proliferation induced by PDGF-BB: decreased in proportion to the concentration
[2]
  migration of VSMC induced by PDGF-BB: decreased in proportion to the concentration
[3]
  LD50: > 500 mg/kg
SD rats; oral, single administration
  dose without toxicity to rats: up to 500 mg/kg
SD rats; single oral dose 1 g/kg in 0.5% methylcellulose
  survival: all experimental rats survived
SD rats; single oral dose 1 g/kg, body weight, hematology, blood biochemistry, autopsy
  clinical symptoms, toxicities and other abnormalities: no abnormal clinical symptoms, no toxicities and other abnormalities
